Source: PMC3656252 (The Journal of Biological Chemistry, 2013)
Blank lines part the entries; values can stand above or below the molecule they belong to. No end group written: not given here.

Legend:
[1] = tested on: DP8; test: 1.7 milliunits of recombinant DP8 in assay buffer: 50 mM Tris, 100 mM NaCl, pH 8.0; details: human, 37 °C, up to 24 h
[2] = tested on: DP9; test: 1.7 milliunits of recombinant DP9 in assay buffer: 50 mM Tris, 100 mM NaCl, pH 8.0; details: human, 37 °C, up to 24 h
[3] = tested on: DP8; details: cited from earlier work
Excerpt: (§1) In vitro, both DP8 and DP9 cleave the well known DP4 substrates neuropeptide Y(1–36), glucagon-like peptide-1(7–36), glucagon-like peptide-2(1–33), and peptide YY(1–36) ([18], [19]). […] However, as DP8 and DP9 are intracellular enzymes, it is unlikely that these secreted substrates will be of physiological relevance in vivo. Clues for their in vivo roles come from studies blocking DP ...

[4] = tested on: DP9; details: cited from earlier work
Excerpt: as §1

cleaved bond [1]: P-K | cleaved bond [2]: P-K
Molecule: PPKKGGDGIKPPPIIGR

not cleaved [1]: nc (not cleaved) after 24 h | not cleaved [2]: nc (not cleaved) after 24 h
Molecule: ASGANFEYIIAEKRGK

Molecule: glucagon-like peptide-2(1–33): well known DP4 substrate (HADGSFSDEMNTILDNLAARDFINWLIQTKITD; Glucagon-like peptide 2; UniProt P01275 146-178, looked up)
Cleavage by DP8 in vitro [3]: cleave | Cleavage by DP9 in vitro [4]: cleave

not cleaved [1]: nc (not cleaved) after 24 h | not cleaved [2]: nc (not cleaved) after 24 h
Molecule: DDEVDVDGTVEEDLGKSR

Molecule: glucagon-like peptide-1(7–36): well known DP4 substrate (HAEGTFTSDVSSYLEGQAAKEFIAWLVKGR; ends and bridges not checked; UniProt P01275 98-127, looked up)
Cleavage by DP8 in vitro [3]: cleave | Cleavage by DP9 in vitro [4]: cleave

cleaved bond [1]: P-A, 1 h | cleaved bond [2]: P-A, 1 h
Molecule: EPAVYFKEQFLDGDGWTSR

Molecule: neuropeptide Y(1–36): well known DP4 substrate
Cleavage by DP8 in vitro [3]: cleave | Cleavage by DP9 in vitro [4]: cleave

cleaved bond [1]: P-L | cleaved bond [2]: P-L
Molecule: APLDLDKYVEIARLCK

not cleaved [1]: nc (not cleaved) after 24 h | not cleaved [2]: nc (not cleaved) after 24 h
Molecule: AEVKKPAAAAAPGTAEKLSP

Molecule: peptide YY(1–36): well known DP4 substrate
Cleavage by DP8 in vitro [3]: cleave | Cleavage by DP9 in vitro [4]: cleave

not cleaved [1]: nc (not cleaved) after 24 h | not cleaved [2]: nc (not cleaved) after 24 h
Molecule: ATAKGIAIGIDLGTTYSCVG

cleaved bond [1]: P-S, 1 h | cleaved bond [2]: P-S, 1 h
Molecule: APSVPAAEPEYPKGIR

cleaved bond [1]: P-A | cleaved bond [2]: P-A
Molecule: SPADLPKSWDWRNVDG

cleaved bond [1]: P-A | cleaved bond [2]: P-A
Molecule: APAEILNGKEISAQIR

cleaved bond [1]: P-V | cleaved bond [2]: P-V
Molecule: APVLSKDSADIESILALNPR

not cleaved [1]: nc (not cleaved) after 24 h | not cleaved [2]: nc (not cleaved) after 24 h
Molecule: VSKPTLKEVVIVSATR

Molecule: interferon-γ-inducible protein: chemokine, known DP4 substrate
DP8 cleavage of chemokines in vitro [3]: cleavage

cleaved bond [1]: P-K | cleaved bond [2]: P-K
Molecule: APKFPDSVEELRAAG

cleaved bond [1]: P-G | cleaved bond [2]: P-G
Molecule: APGQLALFSVSDKTGLVEFAR

B1: interferon-inducible T cell α-chemoattractant: chemokine, known DP4 substrate (protein, UniProt O14625 22-94, looked up)
C-X-C motif chemokine 11: FPMFKRGRCLCIGPGVKAVKVADIEKASIMYPSNNCDKIEVIITLKENKGQRCLNPKSKQARLIIKKVERKNF
DP8 cleavage of chemokines in vitro [3]: cleavage
